#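 Following 48 hours of exposure in 96-well plates, responses at five concentrations were used to interpolate endpoints linearly. Abbreviation: GI50, concentration required for 50% inhibition of growth. TGI marks complete inhibition of growth.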
# Tests used:
# Experiment in all cases: growth of human tumour cells (NCI), 48 h
# SF-539 CNS = test system: SF-539 CNS
# SK-MEL-28 melanoma = test system: SK-MEL-28 melanoma
# MDA-MB-231 breast = test system: MDA-MB-231 breast
# SNB-75 CNS = test system: SNB-75 CNS
# IGROV1 ovarian = test system: IGROV1 ovarian
# NCI-H460 lung = test system: NCI-H460 lung
# SR leukemia = test system: SR leukemia
# HCC-2998 colon = test system: HCC-2998 colon
# UO-31 renal = test system: UO-31 renal
# BT-549 breast = test system: BT-549 breast
# ACHN renal = test system: ACHN renal
# OVCAR-4 ovarian = test system: OVCAR-4 ovarian
# SK-MEL-5 melanoma = test system: SK-MEL-5 melanoma
# M14 melanoma = test system: M14 melanoma
# MCF7 breast = test system: MCF7 breast
# TK-10 renal = test system: TK-10 renal
# NCI-H226 lung = test system: NCI-H226 lung
# UACC-62 melanoma = test system: UACC-62 melanoma
# UACC-257 melanoma = test system: UACC-257 melanoma
# SK-MEL-2 melanoma = test system: SK-MEL-2 melanoma
# T-47D breast = test system: T-47D breast
# EKVX NSCLC = test system: EKVX NSCLC
# MALME-3M melanoma = test system: MALME-3M melanoma
# OVCAR-3 ovarian = test system: OVCAR-3 ovarian
# K-562 leukemia = test system: K-562 leukemia
# NCI/ADR-RES ovarian = test system: NCI/ADR-RES ovarian
# HCT-116 colon = test system: HCT-116 colon
# NCI-H23 lung = test system: NCI-H23 lung
# MDA-MB-435 = test system: MDA-MB-435
# COLO 205 colon = test system: COLO 205 colon
# HS 578T breast = test system: HS 578T breast
# RPMI-8226 leukemia = test system: RPMI-8226 leukemia
# RXF 393 renal = test system: RXF 393 renal
# SF-268 CNS = test system: SF-268 CNS
# KM12 colon = test system: KM12 colon
# PC-3 prostate = test system: PC-3 prostate
# HOP-62 NSCLC = test system: HOP-62 NSCLC
# SW-620 colon = test system: SW-620 colon
# SK-OV-3 ovarian = test system: SK-OV-3 ovarian
# U251 CNS = test system: U251 CNS
# DU-145 prostate = test system: DU-145 prostate
# CCRF-CEM leukemia = test system: CCRF-CEM leukemia
# 786-0 renal = test system: 786-0 renal
# OVCAR-5 ovarian = test system: OVCAR-5 ovarian
# MOLT-4 leukemia = test system: MOLT-4 leukemia
# SF-295 CNS = test system: SF-295 CNS
# HCT-15 colon = test system: HCT-15 colon
# SNB-19 CNS = test system: SNB-19 CNS
# OVCAR-8 ovarian = test system: OVCAR-8 ovarian
# HT29 colon = test system: HT29 colon
# LOX IMVI melanoma = test system: LOX IMVI melanoma
# CAKI-1 renal = test system: CAKI-1 renal
# SN12C renal = test system: SN12C renal
# HOP-92 NSCLC = test system: HOP-92 NSCLC
# NCI-H522 lung = test system: NCI-H522 lung
# HL-60(TB) leukemia = test system: HL-60(TB) leukemia
# A549 NSCLC = test system: A549 NSCLC
structure (smiles),measurement,setting,value
CC(C)=CCc1c2c(c(O)c3c1O[C@]14C(=C[C@@H]5C[C@H]1C(C)(C)O[C@@]4(C/C=C(/C)C(=O)O)C5=O)C3=O)C=CC(C)(C)O2,GI50,SF-539 CNS,16.5 µM
same,TGI,SF-539 CNS,35.1 µM
same,GI50,SK-MEL-28 melanoma,15 µM
same,TGI,SK-MEL-28 melanoma,30.1 µM
same,GI50,MDA-MB-231 breast,13.2 µM
same,TGI,MDA-MB-231 breast,33.7 µM
same,GI50,SNB-75 CNS,13.9 µM
same,TGI,SNB-75 CNS,32.4 µM
same,GI50,IGROV1 ovarian,4.64 µM
same,TGI,IGROV1 ovarian,17.7 µM
same,GI50,NCI-H460 lung,15.8 µM
same,TGI,NCI-H460 lung,32.1 µM
same,GI50,SR leukemia,3.13 µM
same,TGI,SR leukemia,> 100 µM
same,GI50,HCC-2998 colon,18.5 µM
same,TGI,HCC-2998 colon,35.9 µM
same,GI50,UO-31 renal,9.78 µM
same,TGI,UO-31 renal,23.1 µM
same,GI50,BT-549 breast,14.4 µM
same,TGI,BT-549 breast,29.1 µM
same,GI50,ACHN renal,12.2 µM
same,TGI,ACHN renal,25.7 µM
same,GI50,OVCAR-4 ovarian,15.6 µM
same,TGI,OVCAR-4 ovarian,36.8 µM
same,GI50,SK-MEL-5 melanoma,16.4 µM
same,TGI,SK-MEL-5 melanoma,30.7 µM
same,GI50,M14 melanoma,12.8 µM
same,TGI,M14 melanoma,29.5 µM
same,GI50,MCF7 breast,5.59 µM
same,TGI,MCF7 breast,42.4 µM
same,GI50,TK-10 renal,18 µM
same,TGI,TK-10 renal,32.3 µM
same,GI50,NCI-H226 lung,21.7 µM
same,TGI,NCI-H226 lung,50.2 µM
same,GI50,UACC-62 melanoma,15.3 µM
same,TGI,UACC-62 melanoma,32.2 µM
same,GI50,UACC-257 melanoma,12.7 µM
same,TGI,UACC-257 melanoma,28 µM
same,GI50,SK-MEL-2 melanoma,18.1 µM
same,TGI,SK-MEL-2 melanoma,38.5 µM
same,GI50,T-47D breast,10 µM
same,TGI,T-47D breast,31.1 µM
same,GI50,EKVX NSCLC,17.2 µM
same,TGI,EKVX NSCLC,41.4 µM
same,GI50,MALME-3M melanoma,13.1 µM
same,TGI,MALME-3M melanoma,27.8 µM
same,GI50,OVCAR-3 ovarian,10.2 µM
same,TGI,OVCAR-3 ovarian,22 µM
same,GI50,K-562 leukemia,6.43 µM
same,TGI,K-562 leukemia,> 100 µM
same,GI50,NCI/ADR-RES ovarian,21.3 µM
same,TGI,NCI/ADR-RES ovarian,75.3 µM
same,GI50,HCT-116 colon,11.4 µM
same,TGI,HCT-116 colon,24.2 µM
same,GI50,NCI-H23 lung,19.6 µM
same,TGI,NCI-H23 lung,49.4 µM
same,GI50,MDA-MB-435,14.3 µM
same,TGI,MDA-MB-435,29.5 µM
same,GI50,COLO 205 colon,17 µM
same,TGI,COLO 205 colon,37.9 µM
same,GI50,HS 578T breast,17.3 µM
same,TGI,HS 578T breast,58.9 µM
same,GI50,RPMI-8226 leukemia,3.19 µM
same,TGI,RPMI-8226 leukemia,13.9 µM
same,GI50,RXF 393 renal,12.6 µM
same,TGI,RXF 393 renal,28.2 µM
same,GI50,SF-268 CNS,15.4 µM
same,TGI,SF-268 CNS,31.4 µM
same,GI50,KM12 colon,16.7 µM
same,TGI,KM12 colon,33.5 µM
same,GI50,PC-3 prostate,14 µM
same,TGI,PC-3 prostate,31.1 µM
same,GI50,HOP-62 NSCLC,15.4 µM
same,TGI,HOP-62 NSCLC,31.5 µM
same,GI50,SW-620 colon,4.06 µM
same,TGI,SW-620 colon,17.4 µM
same,GI50,SK-OV-3 ovarian,24.7 µM
same,TGI,SK-OV-3 ovarian,51.3 µM
same,GI50,U251 CNS,10.4 µM
same,TGI,U251 CNS,22.6 µM
same,GI50,DU-145 prostate,15.6 µM
same,TGI,DU-145 prostate,29 µM
same,GI50,CCRF-CEM leukemia,0.987 µM
same,TGI,CCRF-CEM leukemia,23.4 µM
same,GI50,786-0 renal,4.27 µM
same,TGI,786-0 renal,16.4 µM
same,GI50,OVCAR-5 ovarian,17.6 µM
same,TGI,OVCAR-5 ovarian,36.3 µM
same,GI50,MOLT-4 leukemia,14.3 µM
same,TGI,MOLT-4 leukemia,63 µM
same,GI50,SF-295 CNS,17.7 µM
same,TGI,SF-295 CNS,36.5 µM
same,GI50,HCT-15 colon,6.65 µM
same,TGI,HCT-15 colon,33.8 µM
same,GI50,SNB-19 CNS,17.2 µM
same,TGI,SNB-19 CNS,33.6 µM
same,GI50,OVCAR-8 ovarian,12.7 µM
same,TGI,OVCAR-8 ovarian,33.6 µM
same,GI50,HT29 colon,12.9 µM
same,TGI,HT29 colon,32.6 µM
same,GI50,LOX IMVI melanoma,3.51 µM
same,TGI,LOX IMVI melanoma,14.4 µM
same,GI50,CAKI-1 renal,16.6 µM
same,TGI,CAKI-1 renal,32.1 µM
same,GI50,SN12C renal,17.5 µM
same,TGI,SN12C renal,46.3 µM
same,GI50,HOP-92 NSCLC,11.7 µM
same,TGI,HOP-92 NSCLC,26.7 µM
same,GI50,NCI-H522 lung,16 µM
same,TGI,NCI-H522 lung,30.3 µM
same,GI50,HL-60(TB) leukemia,12 µM
same,TGI,HL-60(TB) leukemia,43.2 µM
same,GI50,A549 NSCLC,20.9 µM
same,TGI,A549 NSCLC,45.6 µM

# Reference: PubChem BioAssay (NCI)
